From PubChem BioAssay AID179 (DTP/NCI, 2004) come the findings set out here.

For this assay, the system named is CEM cells HIV-1 protection, formazan growth assay. The assay can be described thus: NCI AIDS Antiviral Assay. Conditions: for IC50: measured here: growth of uninfected CEM cells. An outline of the steps:
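Protection of CEM cells against HIV-1 measured as cell growth via soluble formazan read-out, with five concentrations tested on both infected and uninfected cells; failure to protect may reflect toxicity.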

Values joined by “and” are separate entries in the source; they are usually repeats but may differ in a detail not shown here. Equal values may be shown once. Active and inactive are the calls of the source.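 The calls were made as follows: active = compounds giving half or more protection of infected cells from virus-caused growth loss, again on retest; inactive = the rest.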

For `O=C(O/N=C1/CCC/C1=C\c1ccccc1)c1ccc(Cl)c(Cl)c1`, the outcome was inactive.

As a reminder, the EC50 is the concentration that produces a half-maximal response. Usually IC50 stands for the concentration at which inhibition is half-maximal. A low value points to higher potency. In the case of `OC12CCCCCC1(N1CCOCC1)c1ccccc12` (centres undefined), the EC50 is more than 200 µM and the IC50 is more than 200 µM.

On to `O=c1cc(-c2ccccc2)oc2cc(OCCCOc3ccc4c(=O)cc(-c5ccccc5)oc4c3)ccc12`, for which the EC50 was more than 3.89 µM and the IC50 is more than 3.89 µM.

`O=c1c2c3c(sc2nc2n1N=C(c1ccc(Cl)cc1)CS2)CCCC3`: the EC50 was more than 200 µM and the IC50 is more than 200 µM.

In the case of `CN(C)CC1CCC/C(=C\c2ccc(N(C)C)cc2)C1=O` (centres undefined), the EC50 is more than 200 µM and the IC50 came to 2.24 µM.

Turning to `O=C(O)Cc1cc(=O)oc2cc(O)ccc12`, the EC50 is more than 1120 µM and the IC50 is more than 1120 µM.

As to `N#CN1C2CCC1CC(=O)C2`, the EC50 is 67.6 µM and the IC50 is 129 µM.

Take `CC1(c2cccc3c2C2(O)C=CC4(CCC32)OCCO4)OCCO1` (centres undefined): the EC50 is 123 µM and the IC50 came to 174 µM.

As to `Clc1ccccc1CSc1ccc2nncc(SCc3ccccc3Cl)c2c1`, the EC50 was more than 34.7 µM and the IC50 is more than 34.7 µM.

As for `COc1cc2c(c([N+](=O)[O-])c1)NC(=O)CC(C)S2` (centres undefined), the EC50 is 95.5 µM and the IC50 was determined as 148 µM.

With `Cc1ccc2c(c1)sc1nncn12`, the EC50 is more than 100 µM and the IC50 was more than 100 µM.

For `Nc1nc(NCCOCP(=O)(O)O)c(N)c(=O)[nH]1`, the EC50 is more than 200 µM and the IC50 is more than 200 µM.

For the molecule `O=C1CCC(=O)N1CNc1cccc(NCN2C(=O)CCC2=O)c1`, the EC50 was more than 39.8 µM and the IC50 is more than 39.8 µM.

`COc1cc(COC(=O)N(C)[C@@H](Cc2ccccc2)C(=O)O)c([N+](=O)[O-])cc1OC`: the EC50 was more than 603 µM and the IC50 was 302 µM.

As to `O=S(=O)(c1ccc(NCSc2nc3ccccc3s2)cc1)c1ccc(NCSc2nc3ccccc3s2)cc1`, the EC50 was more than 12 µM and the half-maximal inhibitory concentration (IC50) was more than 12 µM.

With `OCc1ccc2[n+](c1)CCC1c3ccccc3NC21` (centres undefined), the EC50 is more than 77.6 µM and the IC50 is more than 77.6 µM.

Turning to `O=C1C(Cl)=C(Cl)C(=O)N1c1cccc(C(F)(F)F)c1`, the result was inactive.

As to `CCOC(=O)c1c(NC(=S)Nc2ccccc2)sc2c1CCN(C)C2`, the EC50 is more than 200 µM and the IC50 was more than 200 µM.

For the molecule `O=c1cc(-c2ccccc2)oc2c(O)c(O)cc(O)c12`, the EC50 is more than 186 µM and the IC50 is more than 186 µM.

Take `O=C1NC(=O)C2C3C(C(O)(c4ccccc4)c4ccccn4)=CC(/C3=C(\c3ccccc3)c3ccccn3)C12` (centres undefined): the EC50 is more than 200 µM and the IC50 was determined as 53.7 µM.

With `CCOC(=O)c1ccc(NC(=O)O/N=C(/Cl)CCl)cc1`, the EC50 is more than 200 µM and the IC50 turned out to be 18.6 µM.

With `Cc1ccc(NC(=O)C(=O)C(C#N)c2nc(-c3ccc(-c4ccccc4)cc3)cs2)c(C)c1` (centres undefined), the EC50 is more than 66.1 µM and the IC50 is more than 66.1 µM.

As to `O=C1CCCC2=C1CC1=C(CCCC1=O)N2c1ccc(-c2ccccc2)cc1`, the outcome was inactive.

Consider `Nc1ccn(C2OC(COP(=O)(O)O)C(O)C2O)c(=O)n1` (centres undefined) (tested in a mixture with another compound), for which the EC50 was more than 200 µM and the IC50 worked out at 40.7 µM.

Turning to `COc1ccc(-n2[nH]c3c(cnc4ccccc43)c2=O)cc1`, the EC50 is more than 200 µM and the IC50 is more than 200 µM.

Consider `CC(=O)N1CN2C(=O)CCC2c2ccccc21` (centres undefined), for which the result was inactive.

Take `CCCCCCCCCCCSSCCCCCCCCCCC`: the EC50 was more than 200 µM and the half-inhibitory concentration (IC50) is more than 200 µM.

Turning to `O=C(O)C1[C@@H](C(=O)O)C1(Br)CBr` (some centres undefined), the EC50 is more than 200 µM and the IC50 was more than 200 µM.

Take `CCOC(=O)c1sc2nc(CN3CCOCC3)[nH]c(=O)c2c1C`: the EC50 was more than 77.6 µM and the IC50 was more than 77.6 µM.

For `NCCn1cnc2nc(NC(=O)c3ccccc3)[nH]c(=O)c21`, the EC50 was more than 166 µM and the IC50 is 91.2 µM.

`O=C(Cc1ccccc1)NCCc1ccc(O)c(O)c1`: the EC50 is more than 200 µM and the IC50 stood at 27.5 µM.

With `CCC(C)C(CC)C(N)=O` (centres undefined), the EC50 was more than 200 µM and the IC50 is more than 200 µM.

Take `CCOC(=O)C(OP(=O)(OCC)OCC)C(F)(F)F` (centres undefined): the EC50 is more than 200 µM and the IC50 was more than 200 µM.

As to `CO/C(=N\N=C\c1ccc(Cl)cc1Cl)c1ccncc1`, the EC50 is more than 21.9 µM and the IC50 is more than 21.9 µM.

Regarding `COc1ccc2c(c1OC)C(C=C(c1ccccc1)c1ccccc1)CN(C)C2` (centres undefined), the EC50 was more than 93.3 µM and the IC50 turned out to be 15.8 µM.

With `COc1ccc(Cc2c[n+](C)cc3cc(N=O)c(OC)cc23)cc1O`, the EC50 was more than 200 µM and the IC50 is more than 200 µM.

With `N#CCCN(C1=NN(C(=O)CC(=O)Nc2ccccc2)C(c2ccccc2)C1)c1ccccc1Cl` (centres undefined), the EC50 was more than 269 µM and the IC50 was more than 269 µM.

As to `O=C(O)C1CCC(C(=O)O)SS1` (centres undefined), the EC50 was more than 1200 µM and the IC50 was more than 1200 µM.

`NC(=O)c1[nH]nc(C2OC(CO)C(O)C2O)c1O` (centres undefined): the EC50 is more than 955 µM and the IC50 is 0.309 µM.

Take `O=S(=O)([O-])c1ccc2c(N=Nc3ccc(/C=C\c4ccc(N=Nc5c([O-])ccc6cc(S(=O)(=O)[O-])ccc56)cc4S(=O)(=O)[O-])c(S(=O)(=O)[O-])c3)c([O-])ccc2c1.[Cu+2].[Cu+2].[Na+]`: the EC50 is more than 19.1 µM and the IC50 worked out at 15.8 µM.

As for `CC(=O)[O-].N.N.N.N.N.[Co+3].[O-][Cl+3]([O-])([O-])[O-]`, the result was inactive.

In the case of `O=P(Nc1ccccc1)(Nc1ccccc1)Nc1ccccc1`, the EC50 is more than 155 µM and the IC50 amounted to 141 µM.

Regarding `Cc1cccc(N=Nc2c(C)nn(C(=O)CC(=O)Nc3ccc(Cl)cc3)c2C)c1`, the EC50 is more than 200 µM and the IC50 stood at 123 µM.

Regarding `[O-]/[N+]1=[N+](\[O-])c2ccccc2CCCc2ccccc21`, the EC50 is more than 269 µM and the IC50 was more than 269 µM.

With `COC(=O)c1ccc(NC(=O)O/N=C(\Cl)C(C)C)cc1`, the EC50 was more than 20 µM and the IC50 came out at 3.63 µM.

For the molecule `Cc1nc2c(=O)[nH]ncc2[nH]1`, the EC50 was more than 200 µM and the IC50 was more than 200 µM.

With `COC(=O)N1CCC(Sc2ccccc2)C2(CCSc3ccccc3)CCC=C12` (centres undefined), the EC50 is more than 12.3 µM and the IC50 is more than 12.3 µM.

Consider `Cc1c(C(=O)NCCO)[n+](=O)c2cc(Cl)ccc2n1[O-]`, for which the EC50 was more than 832 µM and the IC50 amounted to 56.2 µM.

For the molecule `COc1cc(/C=C2/SC(c3ccccc3)N(c3ccccc3)C2=O)cc(OC)c1OC` (centres undefined), the EC50 was more than 20 µM and the IC50 is 4.47 µM.

`O=C1N(CO)C2C(N1CO)N(CO)C(=O)N2CO` (centres undefined): the EC50 was more than 200 µM; the IC50 was 33.1 µM and 102 µM.

As to `CC(=O)NNc1nc(C)c(C(=O)NNC(=O)C(=O)Nc2ccc(C)cc2[N+](=O)[O-])s1`, the EC50 was more than 83.2 µM and the IC50 is 39.8 µM.

Consider `CC1(C)SC(CCCCCCCCCCCNC2=NCCCCCCCCCCC2)=N[C@@H]1C(=O)O`, for which the EC50 was more than 67.6 µM and the IC50 was found to be 38 µM.

For the molecule `N#CCCN(CCC#N)c1ccc(/C=C2\CC(O)(c3ccccc3)N(c3ccc(Cl)cc3)C2=O)cc1` (centres undefined), the EC50 is more than 5.5 µM and the IC50 is more than 5.5 µM.

Regarding `O=C(OCc1ccccc1)N(CCCCN(CCCNC(=O)C(F)(F)F)C(=O)OCc1ccccc1)CCCNC(=O)C(F)(F)F`, the outcome was inactive.

Regarding `CSC1NC(c2ccccc2)=C(C#N)C(=O)N1C1OCC(OC(C)=O)C(OC(C)=O)C1OC(C)=O` (centres undefined), the EC50 is more than 200 µM and the IC50 was 148 µM.

With `Cc1ccc(NC(=O)C(=O)C(C(=O)c2ccc3ccccc3c2)C2OC(=O)c3ccccc32)c(C)c1` (centres undefined), the EC50 is more than 75.9 µM and the IC50 was found to be 21.4 µM.

In the case of `Cc1ccc(S(=O)(=O)N/N=C/c2oc(-c3ccncc3)c(-c3ccncc3)c2[N+](=O)[O-])cc1`, the EC50 is more than 15.5 µM and the IC50 is more than 15.5 µM.

For `CC1=NNC(=O)C12CC2`, the result was inactive.

Consider `CON(C)C(=O)CNC(=O)OCC1c2ccccc2-c2ccccc21`, for which the EC50 was more than 200 µM and the IC50 was more than 100 µM.

On to `CC(C)c1cc(C(C)C)c(S(=O)(=O)N=[N+]=[N-])c(C(C)C)c1`, for which the EC50 is more than 17 µM and the IC50 was more than 17 µM.

Regarding `CC1(C)C=C(S(=O)(=O)c2ccccc2)Oc2ccccc2O1`, the EC50 is more than 200 µM and the IC50 is 132 µM.

Regarding `O=C1O/C(=C(/Cl)c2cccc3ccccc23)c2ccccc21`, the result was inactive.

As to `C=CC(=O)NC(O)(C(=O)OCC)C(F)(F)F` (centres undefined), the EC50 was more than 200 µM and the IC50 is more than 200 µM.

Regarding `O=C(COC(=O)c1cccc2c(=O)c3ccccc3[nH]c12)Nc1ccc(C(=O)O)cc1`, the outcome was inactive.

Take `O=C1C2N=NNC2C(=O)N1c1ccccc1` (centres undefined): the EC50 is more than 200 µM and the IC50 is more than 200 µM.

For `CCCN(CCC)C1=Nc2ccccc2-n2cnnc2C1`, the EC50 is more than 200 µM and the IC50 was determined as 178 µM.

On to `COc1ccc(CC2COC(=O)[C@@H]2Cc2cccc(O)c2)cc1OC` (some centres undefined), for which the EC50 is more than 200 µM and the IC50 is 155 µM.

Turning to `COc1cc2[nH]ncc(=S)c2cc1OC`, the EC50 was 61.7 µM and the IC50 came to 219 µM.

Take `COc1cc(/C=C2/CCS(=O)(=O)c3ccc(C)cc3C2=O)cc(OC)c1OC`: the EC50 was more than 200 µM and the IC50 came to 3.72 µM.

Turning to `CC(C)(C)c1cc(S(=O)(=O)O)c2oc(-c3ccccc3)cc(=O)c2c1`, the EC50 is more than 200 µM and the IC50 was more than 200 µM.

For `COP(=O)(OC)/C(=C/c1c[nH]c2ccccc12)C(=O)O`, the EC50 is more than 200 µM and the IC50 was more than 200 µM.

Take `CNc1ccc(OC)cc1S(=O)(=O)c1ccccc1[N+](=O)[O-]`: the EC50 was 148 µM and the IC50 was 182 µM.

Take `CCc1n[nH]c(=O)n1/N=C/c1c(O)ccc2ccccc12`: the EC50 was more than 200 µM and the IC50 is more than 200 µM.

With `O=C1CC23CCC12CCCC3=O` (centres undefined), the EC50 is more than 550 µM and the IC50 was more than 550 µM.
